In ChEMBL document CHEMBL1157692, “Probing the carbohydrate recognition domain of E-selectin: the importance of the acid orientation in sLex mimetics” (Bioorg Med Chem, 2010):
Activity calls are given as the source filed them. The rule behind the calls is not given here.

biological target: T1, E-selectin (Homo sapiens) (UniProt P16581); experiment: Inhibition of CGP-69669A binding to E-selectin by ELISA
T1 sequence (whole entry): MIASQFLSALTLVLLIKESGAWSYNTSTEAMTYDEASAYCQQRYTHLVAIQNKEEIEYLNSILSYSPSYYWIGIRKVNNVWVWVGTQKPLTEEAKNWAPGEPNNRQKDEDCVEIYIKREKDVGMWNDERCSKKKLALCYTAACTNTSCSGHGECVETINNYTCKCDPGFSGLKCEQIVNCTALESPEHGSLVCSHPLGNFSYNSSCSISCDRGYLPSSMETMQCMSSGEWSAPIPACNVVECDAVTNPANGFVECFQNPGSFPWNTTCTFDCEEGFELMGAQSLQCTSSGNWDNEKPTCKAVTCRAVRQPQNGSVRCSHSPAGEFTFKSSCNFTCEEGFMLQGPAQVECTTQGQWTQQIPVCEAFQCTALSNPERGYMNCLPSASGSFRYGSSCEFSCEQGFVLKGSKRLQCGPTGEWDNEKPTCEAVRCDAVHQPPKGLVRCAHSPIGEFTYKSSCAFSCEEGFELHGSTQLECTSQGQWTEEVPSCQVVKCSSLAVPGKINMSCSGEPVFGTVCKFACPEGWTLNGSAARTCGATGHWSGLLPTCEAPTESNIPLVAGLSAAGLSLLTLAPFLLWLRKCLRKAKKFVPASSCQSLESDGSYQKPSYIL

Row | inhibition | SMILES
1 | inactive | C[C@@H]1O[C@@H](O[C@@H]2CCCC[C@H]2O[C@@H]2O[C@H](CO)[C@H](O)[C@H](O[C@@H](Cn3cc(-c4cccc(C(F)(F)F)c4)nn3)C(=O)O)[C@H]2O)[C@@H](O)[C@H](O)[C@@H]1O

biological target: T1, E-selectin (Homo sapiens); experiment: Ratio of sialyl Lewis X IC50 to compound IC50 for E-selectin by ELISA

Row | Ratio IC50 | SMILES
2 | 12 | C[C@@H]1O[C@@H](O[C@@H]2CCCC[C@H]2O[C@@H]2O[C@H](CO)[C@H](O)[C@H](O[C@@H](CC3CCCCC3)C(=O)O)[C@H]2O)[C@@H](O)[C@H](O)[C@@H]1O

biological target: T1, E-selectin (Homo sapiens); experiment: Ratio of compound IC50 to sialyl Lewis X IC50 for E-selectin by ELISA

Row | SMILES | Ratio IC50
3 | C[C@@H]1O[C@@H](O[C@@H]2CCCC[C@H]2O[C@@H]2O[C@H](CO)[C@H](O)[C@H](O[C@@H](CC3CCCCC3)C(=O)O)[C@H]2O)[C@@H](O)[C@H](O)[C@@H]1O | 0.08
4 | C[C@@H]1O[C@@H](O[C@@H]2CCCC[C@H]2O[C@@H]2O[C@H](CO)[C@H](O)[C@H](O[C@@H](CN=[N+]=[N-])C(=O)O)[C@H]2O)[C@@H](O)[C@H](O)[C@@H]1O | 0.29
5 | C[C@@H]1O[C@@H](O[C@@H]2CCCC[C@H]2O[C@@H]2O[C@H](CO)[C@H](O)[C@H](O[C@@H](Cn3ccnn3)C(=O)O)[C@H]2O)[C@@H](O)[C@H](O)[C@@H]1O | 0.48
6 | C[C@@H]1O[C@@H](O[C@@H]2CCCC[C@H]2O[C@@H]2O[C@H](CO)[C@H](O)[C@H](O[C@@H](Cn3cc(-c4cccnc4)nn3)C(=O)O)[C@H]2O)[C@@H](O)[C@H](O)[C@@H]1O | 3.13
7 | C[C@@H]1O[C@@H](O[C@@H]2CCCC[C@H]2O[C@@H]2O[C@H](CO)[C@H](O)[C@H](O[C@@H](Cn3cc(-c4ccsc4)nn3)C(=O)O)[C@H]2O)[C@@H](O)[C@H](O)[C@@H]1O | 0.88

The remaining lines, values ahead:

Row | Ratio IC50 | SMILES
8 | 1.03 | C[C@@H]1O[C@@H](O[C@@H]2CCCC[C@H]2O[C@@H]2O[C@H](CO)[C@H](O)[C@H](O[C@@H](Cn3cc(Cc4ccccc4)nn3)C(=O)O)[C@H]2O)[C@@H](O)[C@H](O)[C@@H]1O
9 | 1.18 | C[C@@H]1O[C@@H](O[C@@H]2CCCC[C@H]2O[C@@H]2O[C@H](CO)[C@H](O)[C@H](O[C@@H](Cn3cc(Cn4nnc5ccccc54)nn3)C(=O)O)[C@H]2O)[C@@H](O)[C@H](O)[C@@H]1O
10 | 1.22 | C[C@@H]1O[C@@H](O[C@@H]2CCCC[C@H]2O[C@@H]2O[C@H](CO)[C@H](O)[C@H](O[C@@H](Cn3cc(Cn4nnc5c4CCCC5)nn3)C(=O)O)[C@H]2O)[C@@H](O)[C@H](O)[C@@H]1O
